The values that follow are results of earlier work, collected in PubChem BioAssay AID1259409 (Chemical Carcinogenesis Research Information System (CCRIS), 2018).

The data set concerns rodent chemically induced tumor inhibition, incidence and multiplicity. Kind of data set: CCRIS tumor inhibitor studies.

Take `O=C(O)/C=C/C(=O)O`: the “tumour outcome (control, treated, inhibition, significance)” value (Carcinogen: 3'-METHYL-4-DIMETHYLAMINOAZOBENZENE, 55-80-1, Dose [Inhibitor]: 1% IN DIET AND 0.025% IN DRINKING WATER CONCOMITANTLY FOR 51 WK STARTING AT COMPLETION OF CARCINOGEN TREATMENT (STUDY DU, Route [Inhibitor]: ORAL, Species: RAT, Strain/Sex: DONRYU/MALE, Target Tissue: Type of Lesion: LIVER: CARCINOMA, Dose [Carcinogen]: 0.06% IN DIET FOR 50 D, Promoter: NONE USED) was 11/13 (85%), 2/15 (13%), 85%, p<0.0002; the “tumour outcome (control, treated, inhibition, significance)” value (Carcinogen: 4-(METHYLNITROSAMINO)-1-(3-PYRIDYL)-1-BUTANONE [64091-50-5], Dose [Inhibitor]: 80 MMOL/KG IN DIET FOR 17 WK BEGINNING 1 WK PRIOR TO FIRST CARCINOGEN DOSE (STUDY DURATION: 17 WK), Route [Inhibitor]: ORAL, Species: MOUSE, Strain/Sex: A/J/FEMALE, Target Tissue: Type of Lesion: LUNG: ADENOMA, Dose [Carcinogen]: 10 UMOL ONCE 1 WK POST FIRST INHIBITOR DOSE (STUDY DURATION: 17 WK), Promoter: NONE) is reported as 100%, 100%, 0%, not significant; the “tumour outcome (control, treated, inhibition, significance)” value (Carcinogen: 4-(METHYLNITROSAMINO)-1-(3-PYRIDYL)-1-BUTANONE [64091-50-5], Dose [Inhibitor]: 80 MMOL/KG IN DIET FOR 53 WK BEGINNING 1 WK PRIOR TO FIRST CARCINOGEN DOSE (STUDY DURATION: 53 WK), Route [Inhibitor]: ORAL, Species: MOUSE, Strain/Sex: A/J/FEMALE, Target Tissue: Type of Lesion: LUNG: ADENOMA OR ADENOCARCINOMA, Dose [Carcinogen]: 10 UMOL ONCE 1 WK POST FIRST INHIBITOR DOSE (STUDY DURATION: 53 WK), Promoter: NONE) is 100%, 97%, 3%, not significant; the “tumour outcome (control, treated, inhibition, significance)” value (Carcinogen: 4-(METHYLNITROSAMINO)-1-(3-PYRIDYL)-1-BUTANONE [64091-50-5], Dose [Inhibitor]: 160 MMOL/KG IN DIET FOR 17 WK BEGINNING 1 WK PRIOR TO FIRST CARCINOGEN DOSE (STUDY DURATION: 17 WK), Route [Inhibitor]: ORAL, Species: MOUSE, Strain/Sex: A/J/FEMALE, Target Tissue: Type of Lesion: LUNG: ADENOMA, Dose [Carcinogen]: 10 UMOL ONCE 1 WK POST FIRST INHIBITOR DOSE (STUDY DURATION: 17 WK), Promoter: NONE) is 100%, 100%, 0%, not significant; the “tumour outcome (control, treated, inhibition, significance)” value (Carcinogen: 4-(METHYLNITROSAMINO)-1-(3-PYRIDYL)-1-BUTANONE [64091-50-5], Dose [Inhibitor]: 160 MMOL/KG IN DIET FOR 53 WK BEGINNING 1 WK PRIOR TO FIRST CARCINOGEN DOSE (STUDY DURATION: 53 WK), Route [Inhibitor]: ORAL, Species: MOUSE, Strain/Sex: A/J/FEMALE, Target Tissue: Type of Lesion: LUNG: ADENOMA OR ADENOCARCINOMA, Dose [Carcinogen]: 10 UMOL ONCE 1 WK POST FIRST INHIBITOR DOSE (STUDY DURATION: 53 WK), Promoter: NONE) is 100%, 97%, 3%, not significant; the “tumour outcome (control, treated, inhibition, significance)” value (Carcinogen: POTASSIUM 1-METHYL-7-[2-(5-NITRO-2-FURYL)VINYL]-4-OXO-1,4-DIHYDRO-1,8- NAPHTHYRIDINE-3-CARBOXYLATE, 29676-95-7, Dose [Inhibitor]: 1% IN DIET FOR 39 WK STARTING AT COMPLETION OF CARCINOGEN TREATMENT (STUDY DURATION: 53 WK), Route [Inhibitor]: ORAL, Species: MOUSE, Strain/Sex: ICR/MALE, Target Tissue: Type of Lesion: FORESTOMACH: SQUAMOUS CELL CARCINOMA, Dose [Carcinogen]: 0.012% DIET FOR 14 WK, Promoter: NONE USED) was 7/30 (23%), 1/32 (3%), 87%, p<0.05. Moreover, the “tumour outcome (control, treated, inhibition, significance)” value by setting is: (Carcinogen: POTASSIUM 1-METHYL-7-[2-(5-NITRO-2-FURYL)VINYL]-4-OXO-1,4-DIHYDRO-1,8- NAPHTHYRIDINE-3-CARBOXYLATE, 29676-95-7, Dose [Inhibitor]: 1% IN DIET FOR 39 WK STARTING AT COMPLETION OF CARCINOGEN TREATMENT (STUDY DURATION: 53 WK), Route [Inhibitor]: ORAL, Species: MOUSE, Strain/Sex: ICR/MALE, Target Tissue: Type of Lesion: FORESTOMACH: SQUAMOUS CELL PAPILLOMA, Dose [Carcinogen]: 0.012% IN DIET FOR 14 WK, Promoter: NONE USED) 13/30 (43%), 0/32 (0%), 100%, not significant; (Carcinogen: POTASSIUM 1-METHYL-7-[2-(5-NITRO-2-FURYL)VINYL]-4-OXO-1,4-DIHYDRO-1,8- NAPHTHYRIDINE-3-CARBOXYLATE, 29676-95-7, Dose [Inhibitor]: 1% IN DIET FOR 39 WK STARTING AT COMPLETION OF CARCINOGEN TREATMENT (STUDY DURATION: 53 WK), Route [Inhibitor]: ORAL, Species: MOUSE, Strain/Sex: ICR/MALE, Target Tissue: Type of Lesion: LUNG: ADENOCARCINOMA, Dose [Carcinogen]: 0.012% IN DIET FOR 14 WK, Promoter: NONE USED) 2/30 (7%), 11/32 (34%), -386%, not significant; (Carcinogen: POTASSIUM 1-METHYL-7-[2-(5-NITRO-2-FURYL)VINYL]-4-OXO-1,4-DIHYDRO-1,8- NAPHTHYRIDINE-3-CARBOXYLATE, 29676-95-7, Dose [Inhibitor]: 1% IN DIET FOR 39 WK STARTING AT COMPLETION OF CARCINOGEN TREATMENT (STUDY DURATION: 53 WK), Route [Inhibitor]: ORAL, Species: MOUSE, Strain/Sex: ICR/MALE, Target Tissue: Type of Lesion: LUNG: PAPILLOTUBULAR ADENOCARCINOMA, Dose [Carcinogen]: 0.012% IN DIET FOR 14 WK, Promoter: NONE USED) 27/30 (90%), 0/32 (0%), 100%, p<0.01; (Carcinogen: THIOACETAMIDE, 62-55-5, Dose [Inhibitor]: 1% IN DIET FOR 48 WK GIVEN POST CARCINOGEN (STUDY DURATION: 88 WK), Route [Inhibitor]: ORAL, Species: MOUSE, Strain/Sex: ICR/MALE, Target Tissue: Type of Lesion: LIVER: HEPATOCELLULAR CARCINOMA, Dose [Carcinogen]: 0.035% IN DIET FOR 40 WK, Promoter: NONE USED) 11/24 (46%), 0/15 (0%), 100%, p<0.01.
On to `CC(=O)[C@@H]1C[C@@H]2C[C@H]1[C@@H](N=C=S)C2`, for which the “tumour outcome (control, treated, inhibition, significance)” value runs as follows: (Carcinogen: 7,12-DIMETHYLBENZ[A]ANTHRACENE, 57-97-6, Dose [Inhibitor]: 0, 75 UMOL/D IN 0.5 ML EMULPHOR EL-620 FOR 5 CONSECUTIVE DAYS BEGINNING AT 47 D OF AGE (STUDY DURATION: 155 D), Route [Inhibitor]: GAVAGE, Species: RAT, Strain/Sex: SPRAGUE-DAWLEY/FEMALE, Target Tissue: Type of Lesion: MAMMARY GLAND: TUMOR, Dose [Carcinogen]: 8 MG IN 1 ML SESAME OIL ONCE AT 50 D OF AGE, Promoter: NONE USED) 17/25 (68%), 5/20 (25%), 63%, p<0.05; (Carcinogen: 7,12-DIMETHYLBENZ[A]ANTHRACENE, 57-97-6, Dose [Inhibitor]: 0, 150 UMOL/D IN 0.5 ML EMULPHOR EL-620 FOR 5 CONSECUTIVE DAYS BEGINNING AT 47 D OF AGE (STUDY DURATION: 155 D), Route [Inhibitor]: GAVAGE, Species: RAT, Strain/Sex: SPRAGUE-DAWLEY/FEMALE, Target Tissue: Type of Lesion: MAMMARY GLAND: TUMOR, Dose [Carcinogen]: 8 MG IN 1 ML SESAME OIL ONCE AT 50 D OF AGE, Promoter: NONE USED) 17/25 (68%), 5/20 (25%), 63%, p<0.05.
